Laboratory results published in the NIST ThermoML archive (doi:10.1021/acs.jced.8b00524).
± gives the expanded uncertainty stated by the source.

Experiment: xn = mol fraction of the nth substance listed
Settings: 100 kPa, Liquid; for viscosity: Concentric cylinders viscometry; for mass density: Vibrating tube method

CCCCOC(C)=O [butyl ethanoate] + CCCCCCO
Settings	mass density [kg/m3]	viscosity [mPa·s]
293.15 K, x1 = 0.0811	823.6 ± 10	4.7 ± 0.24
293.15 K, x1 = 0.1602	828.4 ± 10	4.14 ± 0.21
293.15 K, x1 = 0.2398	833.3 ± 10	3.64 ± 0.18
293.15 K, x1 = 0.3507	840.1 ± 10	3.04 ± 0.15
293.15 K, x1 = 0.4402	845.7 ± 10	2.63 ± 0.13
293.15 K, x1 = 0.5596	853.1 ± 10	2.16 ± 0.11
293.15 K, x1 = 0.6504	858.9 ± 10	1.84 ± 0.09
293.15 K, x1 = 0.7398	864.5 ± 10	1.55 ± 0.08
293.15 K, x1 = 0.8507	871.6 ± 10	1.2 ± 0.06
293.15 K, x1 = 0.9397	877.2 ± 10	0.92 ± 0.05
293.15 K, x1 = 1	881.1 ± 10	0.732 ± 0.037
298.15 K, x1 = 0.0811	819.8 ± 10	3.99 ± 0.2
298.15 K, x1 = 0.1602	824.4 ± 10	3.5 ± 0.18
298.15 K, x1 = 0.2398	829.1 ± 10	3.06 ± 0.15
298.15 K, x1 = 0.3507	835.8 ± 10	2.56 ± 0.13
298.15 K, x1 = 0.4402	841.2 ± 10	2.22 ± 0.11
298.15 K, x1 = 0.5596	848.5 ± 10	1.82 ± 0.09
298.15 K, x1 = 0.6504	854 ± 10	1.56 ± 0.08
298.15 K, x1 = 0.7398	859.6 ± 10	1.32 ± 0.07
298.15 K, x1 = 0.8507	866.5 ± 10	1.05 ± 0.05
298.15 K, x1 = 0.9397	872.1 ± 10	0.83 ± 0.04
298.15 K, x1 = 1	876 ± 10	0.677 ± 0.034
303.15 K, x1 = 0.0811	815.9 ± 10	3.41 ± 0.17
303.15 K, x1 = 0.1602	820.3 ± 10	2.99 ± 0.15
303.15 K, x1 = 0.2398	824.8 ± 10	2.61 ± 0.13
303.15 K, x1 = 0.3507	831.2 ± 10	2.18 ± 0.11
303.15 K, x1 = 0.4402	836.5 ± 10	1.89 ± 0.1
303.15 K, x1 = 0.5596	843.6 ± 10	1.56 ± 0.08
303.15 K, x1 = 0.6504	849.1 ± 10	1.34 ± 0.07
303.15 K, x1 = 0.7398	854.5 ± 10	1.15 ± 0.06
303.15 K, x1 = 0.8507	861.3 ± 10	0.93 ± 0.05
303.15 K, x1 = 0.9397	866.9 ± 10	0.76 ± 0.04
303.15 K, x1 = 1	870.9 ± 10	0.628 ± 0.032
308.15 K, x1 = 0.0811	812 ± 10	2.94 ± 0.15
308.15 K, x1 = 0.1602	816.2 ± 10	2.57 ± 0.13
308.15 K, x1 = 0.2398	820.6 ± 10	2.24 ± 0.11
308.15 K, x1 = 0.3507	826.7 ± 10	1.86 ± 0.09
308.15 K, x1 = 0.4402	831.8 ± 10	1.61 ± 0.08
308.15 K, x1 = 0.5596	838.7 ± 10	1.33 ± 0.07
308.15 K, x1 = 0.6504	844 ± 10	1.16 ± 0.06
308.15 K, x1 = 0.7398	849.4 ± 10	1 ± 0.05
308.15 K, x1 = 0.8507	856.2 ± 10	0.82 ± 0.04
308.15 K, x1 = 0.9397	861.7 ± 10	0.69 ± 0.04
308.15 K, x1 = 1	865.7 ± 10	0.585 ± 0.03
313.15 K, x1 = 0.0811	808 ± 10	2.54 ± 0.13
313.15 K, x1 = 0.1602	811.9 ± 10	2.21 ± 0.11
313.15 K, x1 = 0.2398	816 ± 10	1.93 ± 0.1
313.15 K, x1 = 0.3507	821.8 ± 10	1.61 ± 0.08
313.15 K, x1 = 0.4402	826.7 ± 10	1.41 ± 0.07
313.15 K, x1 = 0.5596	833.5 ± 10	1.18 ± 0.06
313.15 K, x1 = 0.6504	838.8 ± 10	1.04 ± 0.05
313.15 K, x1 = 0.7398	844.1 ± 10	0.92 ± 0.05
313.15 K, x1 = 0.8507	850.9 ± 10	0.76 ± 0.04
313.15 K, x1 = 0.9397	856.4 ± 10	0.63 ± 0.03
313.15 K, x1 = 1	860.5 ± 10	0.546 ± 0.028
318.15 K, x1 = 0.0811	804.2 ± 10	2.21 ± 0.11
318.15 K, x1 = 0.1602	807.9 ± 10	1.92 ± 0.1
318.15 K, x1 = 0.2398	811.7 ± 10	1.68 ± 0.08
318.15 K, x1 = 0.3507	817.4 ± 10	1.4 ± 0.07
318.15 K, x1 = 0.4402	822.1 ± 10	1.23 ± 0.06
318.15 K, x1 = 0.5596	828.6 ± 10	1.05 ± 0.05
318.15 K, x1 = 0.6504	833.8 ± 10	0.93 ± 0.05
318.15 K, x1 = 0.7398	839 ± 10	0.83 ± 0.04
318.15 K, x1 = 0.8507	845.7 ± 10	0.7 ± 0.04
318.15 K, x1 = 0.9397	851.2 ± 10	0.59 ± 0.03
318.15 K, x1 = 1	855.3 ± 10	0.512 ± 0.026
323.15 K, x1 = 0.0811	800.1 ± 10	1.96 ± 0.1
323.15 K, x1 = 0.1602	803.5 ± 10	1.71 ± 0.09
323.15 K, x1 = 0.2398	807.2 ± 10	1.49 ± 0.08
323.15 K, x1 = 0.3507	812.5 ± 10	1.25 ± 0.06
323.15 K, x1 = 0.4402	817.1 ± 10	1.09 ± 0.06
323.15 K, x1 = 0.5596	823.5 ± 10	0.93 ± 0.05
323.15 K, x1 = 0.6504	828.6 ± 10	0.83 ± 0.04
323.15 K, x1 = 0.7398	833.8 ± 10	0.75 ± 0.04
323.15 K, x1 = 0.8507	840.4 ± 10	0.65 ± 0.03
323.15 K, x1 = 0.9397	846 ± 10	0.56 ± 0.03
323.15 K, x1 = 1	850.1 ± 10	0.485 ± 0.025

CCCCCCCCCCO [decan-1-ol] + CCCCOC(C)=O
Settings	mass density [kg/m3]	viscosity [mPa·s]
293.15 K, x2 = 0	829.5 ± 10	14.42 ± 0.72
293.15 K, x2 = 0.0809	832 ± 10	12.8 ± 0.64
293.15 K, x2 = 0.1599	834.6 ± 10	11.41 ± 0.57
293.15 K, x2 = 0.2401	837.6 ± 10	10.07 ± 0.51
293.15 K, x2 = 0.3499	842 ± 10	8.41 ± 0.42
293.15 K, x2 = 0.4401	846 ± 10	7.18 ± 0.36
293.15 K, x2 = 0.5598	851.9 ± 10	5.67 ± 0.29
293.15 K, x2 = 0.6499	856.8 ± 10	4.62 ± 0.23
293.15 K, x2 = 0.7401	862.3 ± 10	3.6 ± 0.18
293.15 K, x2 = 0.8499	869.6 ± 10	2.38 ± 0.12
293.15 K, x2 = 0.9399	876.2 ± 10	1.38 ± 0.07
298.15 K, x2 = 0	826.1 ± 10	11.8 ± 0.59
298.15 K, x2 = 0.0809	828.4 ± 10	10.44 ± 0.52
298.15 K, x2 = 0.1599	830.9 ± 10	9.29 ± 0.47
298.15 K, x2 = 0.2401	833.7 ± 10	8.2 ± 0.41
298.15 K, x2 = 0.3499	838 ± 10	6.86 ± 0.35
298.15 K, x2 = 0.4401	841.8 ± 10	5.87 ± 0.3
298.15 K, x2 = 0.5598	847.5 ± 10	4.61 ± 0.23
298.15 K, x2 = 0.6499	852.3 ± 10	3.75 ± 0.19
298.15 K, x2 = 0.7401	857.5 ± 10	2.94 ± 0.15
298.15 K, x2 = 0.8499	864.7 ± 10	1.97 ± 0.1
298.15 K, x2 = 0.9399	871.1 ± 10	1.19 ± 0.06
303.15 K, x2 = 0	822.7 ± 10	9.76 ± 0.49
303.15 K, x2 = 0.0809	824.8 ± 10	8.61 ± 0.43
303.15 K, x2 = 0.1599	827.1 ± 10	7.62 ± 0.38
303.15 K, x2 = 0.2401	829.7 ± 10	6.71 ± 0.34
303.15 K, x2 = 0.3499	833.8 ± 10	5.59 ± 0.28
303.15 K, x2 = 0.4401	837.5 ± 10	4.78 ± 0.24
303.15 K, x2 = 0.5598	843 ± 10	3.75 ± 0.19
303.15 K, x2 = 0.6499	847.6 ± 10	3.06 ± 0.15
303.15 K, x2 = 0.7401	852.7 ± 10	2.4 ± 0.12
303.15 K, x2 = 0.8499	859.6 ± 10	1.64 ± 0.08
303.15 K, x2 = 0.9399	866 ± 10	1.04 ± 0.05
308.15 K, x2 = 0	819.3 ± 10	8.14 ± 0.41
308.15 K, x2 = 0.0809	821.2 ± 10	7.15 ± 0.36
308.15 K, x2 = 0.1599	823.4 ± 10	6.31 ± 0.32
308.15 K, x2 = 0.2401	825.8 ± 10	5.54 ± 0.28
308.15 K, x2 = 0.3499	829.6 ± 10	4.61 ± 0.23
308.15 K, x2 = 0.4401	833.1 ± 10	3.93 ± 0.2
308.15 K, x2 = 0.5598	838.5 ± 10	3.11 ± 0.16
308.15 K, x2 = 0.6499	842.9 ± 10	2.54 ± 0.13
308.15 K, x2 = 0.7401	847.9 ± 10	2.02 ± 0.1
308.15 K, x2 = 0.8499	854.6 ± 10	1.4 ± 0.07
308.15 K, x2 = 0.9399	860.8 ± 10	0.9 ± 0.05
313.15 K, x2 = 0	815.8 ± 10	6.84 ± 0.34
313.15 K, x2 = 0.0809	817.3 ± 10	5.99 ± 0.3
313.15 K, x2 = 0.1599	819.2 ± 10	5.27 ± 0.27
313.15 K, x2 = 0.2401	821.4 ± 10	4.62 ± 0.23
313.15 K, x2 = 0.3499	824.9 ± 10	3.83 ± 0.19
313.15 K, x2 = 0.4401	828.2 ± 10	3.28 ± 0.17
313.15 K, x2 = 0.5598	833.2 ± 10	2.59 ± 0.13
313.15 K, x2 = 0.6499	837.5 ± 10	2.15 ± 0.11
313.15 K, x2 = 0.7401	842.4 ± 10	1.71 ± 0.09
313.15 K, x2 = 0.8499	849.1 ± 10	1.22 ± 0.06
313.15 K, x2 = 0.9399	855.3 ± 10	0.81 ± 0.04
318.15 K, x2 = 0	812.4 ± 10	5.8 ± 0.29
318.15 K, x2 = 0.0809	813.7 ± 10	5.06 ± 0.25
318.15 K, x2 = 0.1599	815.3 ± 10	4.45 ± 0.22
318.15 K, x2 = 0.2401	817.2 ± 10	3.89 ± 0.2
318.15 K, x2 = 0.3499	820.3 ± 10	3.22 ± 0.16
318.15 K, x2 = 0.4401	823.4 ± 10	2.75 ± 0.14
318.15 K, x2 = 0.5598	828.2 ± 10	2.18 ± 0.11
318.15 K, x2 = 0.6499	832.4 ± 10	1.8 ± 0.09
318.15 K, x2 = 0.7401	837.2 ± 10	1.45 ± 0.07
318.15 K, x2 = 0.8499	843.9 ± 10	1.05 ± 0.05
318.15 K, x2 = 0.9399	850.2 ± 10	0.73 ± 0.04
323.15 K, x2 = 0	808.9 ± 10	4.96 ± 0.25
323.15 K, x2 = 0.0809	809.9 ± 10	4.31 ± 0.22
323.15 K, x2 = 0.1599	811.3 ± 10	3.79 ± 0.19
323.15 K, x2 = 0.2401	813 ± 10	3.3 ± 0.17
323.15 K, x2 = 0.3499	815.9 ± 10	2.72 ± 0.14
323.15 K, x2 = 0.4401	818.8 ± 10	2.32 ± 0.12
323.15 K, x2 = 0.5598	823.4 ± 10	1.84 ± 0.09
323.15 K, x2 = 0.6499	827.3 ± 10	1.53 ± 0.08
323.15 K, x2 = 0.7401	832.1 ± 10	1.25 ± 0.06
323.15 K, x2 = 0.8499	838.7 ± 10	0.92 ± 0.05
323.15 K, x2 = 0.9399	844.9 ± 10	0.66 ± 0.03
